From PubChem BioAssay (NCI)
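Tested at 5 concentrations; 48 h exposure; 96-well plates; endpoints linearly interpolated, else capped at highest concentration. Abbreviation: GI50, concentration required for 50% inhibition of growth. TGI marks complete inhibition of growth.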

Assays:
Assay in all cases: growth of human tumour cells (NCI), 48 h
HS 578T breast = tested on: HS 578T breast
HT29 colon = tested on: HT29 colon
MDA-MB-435 = tested on: MDA-MB-435
KM12 colon = tested on: KM12 colon
UACC-62 melanoma = tested on: UACC-62 melanoma
DU-145 prostate = tested on: DU-145 prostate
CCRF-CEM leukemia = tested on: CCRF-CEM leukemia
SK-OV-3 ovarian = tested on: SK-OV-3 ovarian
HCT-15 colon = tested on: HCT-15 colon
NCI/ADR-RES ovarian = tested on: NCI/ADR-RES ovarian
LOX IMVI melanoma = tested on: LOX IMVI melanoma
SF-268 CNS = tested on: SF-268 CNS
RXF 393 renal = tested on: RXF 393 renal
HCC-2998 colon = tested on: HCC-2998 colon
MOLT-4 leukemia = tested on: MOLT-4 leukemia
SK-MEL-2 melanoma = tested on: SK-MEL-2 melanoma
OVCAR-4 ovarian = tested on: OVCAR-4 ovarian
OVCAR-3 ovarian = tested on: OVCAR-3 ovarian
SW-620 colon = tested on: SW-620 colon
HL-60(TB) leukemia = tested on: HL-60(TB) leukemia
UO-31 renal = tested on: UO-31 renal
SN12C renal = tested on: SN12C renal
786-0 renal = tested on: 786-0 renal
A498 renal = tested on: A498 renal
UACC-257 melanoma = tested on: UACC-257 melanoma
HOP-92 NSCLC = tested on: HOP-92 NSCLC
M14 melanoma = tested on: M14 melanoma
A549 NSCLC = tested on: A549 NSCLC
COLO 205 colon = tested on: COLO 205 colon
TK-10 renal = tested on: TK-10 renal
CAKI-1 renal = tested on: CAKI-1 renal
SF-295 CNS = tested on: SF-295 CNS
T-47D breast = tested on: T-47D breast
NCI-H522 lung = tested on: NCI-H522 lung
RPMI-8226 leukemia = tested on: RPMI-8226 leukemia
NCI-H23 lung = tested on: NCI-H23 lung
SR leukemia = tested on: SR leukemia
SK-MEL-5 melanoma = tested on: SK-MEL-5 melanoma
SNB-75 CNS = tested on: SNB-75 CNS
SF-539 CNS = tested on: SF-539 CNS
ACHN renal = tested on: ACHN renal
K-562 leukemia = tested on: K-562 leukemia
NCI-H226 lung = tested on: NCI-H226 lung
MCF7 breast = tested on: MCF7 breast
HOP-62 NSCLC = tested on: HOP-62 NSCLC
NCI-H460 lung = tested on: NCI-H460 lung
EKVX NSCLC = tested on: EKVX NSCLC
SK-MEL-28 melanoma = tested on: SK-MEL-28 melanoma
BT-549 breast = tested on: BT-549 breast
HCT-116 colon = tested on: HCT-116 colon
PC-3 prostate = tested on: PC-3 prostate
OVCAR-8 ovarian = tested on: OVCAR-8 ovarian
U251 CNS = tested on: U251 CNS
SNB-19 CNS = tested on: SNB-19 CNS

In the case of `CN(C)C(=O)c1cc2cnc(Nc3ccc(-c4csc5c(=O)cc(N6CCOCC6)oc45)cc3)nc2n1C1CCCC1`, the GI50 (HS 578T breast) is reported as 134 nM, the TGI (HS 578T breast) is reported as 648 nM and the GI50 (HT29 colon) is reported as 270 nM. It also gave a TGI (HT29 colon) greater than 100000 nM, a GI50 (MDA-MB-435) of 196 nM and a TGI (MDA-MB-435) of 1890 nM. It also gave a GI50 (KM12 colon) of 41.4 nM, a TGI (KM12 colon) of 682 nM and a GI50 (UACC-62 melanoma) of 129 nM. It also gave a TGI (UACC-62 melanoma) of 367 nM, a GI50 (DU-145 prostate) of 265 nM and a TGI (DU-145 prostate) of 1320 nM. For the same compound, the GI50 (CCRF-CEM leukemia) was 205 nM, the TGI (CCRF-CEM leukemia) was 18300 nM and the GI50 (SK-OV-3 ovarian) was 478 nM. It also gave a TGI (SK-OV-3 ovarian) of 2880 nM, a GI50 (HCT-15 colon) of 224 nM and a TGI (HCT-15 colon) of 1350 nM. For the same compound, the GI50 (NCI/ADR-RES ovarian) was 375 nM, the TGI (NCI/ADR-RES ovarian) was greater than 65600 nM and the GI50 (LOX IMVI melanoma) was 112 nM. The TGI (LOX IMVI melanoma) was 353 nM, the GI50 (SF-268 CNS) was 222 nM and the GI50 (RXF 393 renal) was 163 nM. For the same compound, the TGI (RXF 393 renal) was 388 nM, the GI50 (HCC-2998 colon) was 219 nM and the TGI (HCC-2998 colon) was 1200 nM. The GI50 (MOLT-4 leukemia) was 230 nM, the TGI (MOLT-4 leukemia) was 3260 nM and the GI50 (SK-MEL-2 melanoma) was 236 nM. For the same compound, the TGI (SK-MEL-2 melanoma) was 679 nM, the GI50 (OVCAR-4 ovarian) was 293 nM and the TGI (OVCAR-4 ovarian) was greater than 53700 nM. It also gave a GI50 (OVCAR-3 ovarian) of 228 nM, a GI50 (SW-620 colon) of 153 nM and a TGI (SW-620 colon) of 1000 nM. The GI50 (HL-60(TB) leukemia) was 87.7 nM, the TGI (HL-60(TB) leukemia) was 698 nM and the GI50 (UO-31 renal) was 53.7 nM. The TGI (UO-31 renal) was 287 nM, the GI50 (SN12C renal) was 210 nM and the TGI (SN12C renal) was 14600 nM. It also gave a GI50 (786-0 renal) of 162 nM, a TGI (786-0 renal) of 4250 nM and a GI50 (A498 renal) of 54.7 nM. It also gave a TGI (A498 renal) of 244 nM, a GI50 (UACC-257 melanoma) of 269 nM and a TGI (UACC-257 melanoma) of 909 nM. For the same compound, the GI50 (HOP-92 NSCLC) was 54.1 nM, the TGI (HOP-92 NSCLC) was 41900 nM and the GI50 (M14 melanoma) was 184 nM. It also gave a TGI (M14 melanoma) of 601 nM, a GI50 (A549 NSCLC) of 213 nM and a TGI (A549 NSCLC) greater than 100000 nM. For the same compound, the GI50 (COLO 205 colon) was 166 nM, the TGI (COLO 205 colon) was 1320 nM and the GI50 (TK-10 renal) was 194 nM. For the same compound, the TGI (TK-10 renal) was greater than 100000 nM, the GI50 (CAKI-1 renal) was 152 nM and the TGI (CAKI-1 renal) was 1150 nM. For the same compound, the GI50 (SF-295 CNS) was 242 nM, the TGI (SF-295 CNS) was 1140 nM and the GI50 (T-47D breast) was 171 nM. The TGI (T-47D breast) was greater than 100000 nM, the GI50 (NCI-H522 lung) was 247 nM and the TGI (NCI-H522 lung) was 1300 nM. The GI50 (RPMI-8226 leukemia) was 142 nM, the TGI (RPMI-8226 leukemia) was 533 nM and the GI50 (NCI-H23 lung) was 182 nM. The TGI (NCI-H23 lung) was 870 nM, the GI50 (SR leukemia) was 101 nM and the TGI (SR leukemia) was greater than 80000 nM. For the same compound, the GI50 (SK-MEL-5 melanoma) was 146 nM, the TGI (SK-MEL-5 melanoma) was 423 nM and the GI50 (SNB-75 CNS) was 85 nM. For the same compound, the TGI (SNB-75 CNS) was 373 nM, the GI50 (SF-539 CNS) was 154 nM and the TGI (SF-539 CNS) was 417 nM. The GI50 (ACHN renal) was 187 nM, the TGI (ACHN renal) was 1250 nM and the GI50 (K-562 leukemia) was 285 nM. For the same compound, the TGI (K-562 leukemia) was greater than 100000 nM, the GI50 (NCI-H226 lung) was 229 nM and the TGI (NCI-H226 lung) was 2040 nM. For the same compound, the GI50 (MCF7 breast) was 88.1 nM, the TGI (MCF7 breast) was 1010 nM and the GI50 (HOP-62 NSCLC) was 269 nM. For the same compound, the TGI (HOP-62 NSCLC) was 1670 nM, the GI50 (NCI-H460 lung) was 209 nM and the TGI (NCI-H460 lung) was 1180 nM. The GI50 (EKVX NSCLC) was 214 nM, the TGI (EKVX NSCLC) was 1980 nM and the GI50 (SK-MEL-28 melanoma) was 207 nM. For the same compound, the TGI (SK-MEL-28 melanoma) was 869 nM, the GI50 (BT-549 breast) was 166 nM and the TGI (BT-549 breast) was 686 nM. The GI50 (HCT-116 colon) was 169 nM, the TGI (HCT-116 colon) was 815 nM and the GI50 (PC-3 prostate) was 220 nM. For the same compound, the TGI (PC-3 prostate) was 1470 nM, the GI50 (OVCAR-8 ovarian) was 268 nM and the TGI (OVCAR-8 ovarian) was greater than 30500 nM. For the same compound, the GI50 (U251 CNS) was 200 nM, the TGI (U251 CNS) was greater than 100000 nM and the GI50 (SNB-19 CNS) was 217 nM. The TGI (SNB-19 CNS) was greater than 28500 nM.
